Measurements taken from patent US7582659B2, “Cyclopropyl group substituted oxazolidinone antibiotics and derivatives thereof” (Merck & Co., Inc., priority 2003, dated 2009).
Converted amounts (≈) assume the structure as drawn.

Key:
Type in all cases: cell-based
[1] = tested on: Staphylococcus aureus MR (methicillin resistant); assay: MIC, agar dilution method, Mueller-Hinton agar; conditions: 35° C., 24 hours
Protocol: (§1) The following in vitro results were obtained based on an agar dilution method except for C. pneumoniae. The activity is presented as the minimum inhibitory concentration (MIC).
(§2) S. aureus and M. catarrhalis were tested on Mueller-Hinton agar, using an approximate inoculum of 1×10^4 cfu/spot an incubation temperature of 35° C. for 24 hours. The MIC was defined as the lowest concentration at which no visible bacterial growth was observed.

[2] = tested on: Morcaxella catarrhalis ATCC25238; assay: MIC, agar dilution method, Mueller-Hinton agar; conditions: 35° C., 24 hours
Protocol: as §1, §2

[3] = tested on: Staphylococcus aureus CR (chloramphenicol resistant); assay: MIC, agar dilution method, Mueller-Hinton agar; conditions: 35° C., 24 hours
Protocol: as §1, §2

[4] = tested on: Staphylococcus aureus Smith; assay: MIC, agar dilution method, Mueller-Hinton agar; conditions: 35° C., 24 hours
Protocol: as §1, §2

[5] = tested on: Streptococcus pneumoniae IID553; assay: MIC, agar dilution method, Mueller-Hinton agar with 5% defibrinated horse blood; conditions: 35° C., 5 % CO2, 24 hours
Protocol: as §1
as §2, with “Streptococci” for “S. aureus”, “enterococci” for “M. catarrhalis”, “agar supplemented with 5% defibrinated horse blood,” for “agar,”, “C. in an atmosphere of 5 % CO2” for “C.”

[6] = tested on: Streptococcus pyogenes IID692; assay: as above; conditions: 35° C., 5 % CO2, 24 hours
Protocol: as §1
as §2, with “Streptococci” for “S. aureus”, “enterococci” for “M. catarrhalis”, “agar supplemented with 5% defibrinated horse blood,” for “agar,”, “C. in an atmosphere of 5 % CO2” for “C.”

[7] = tested on: Enterococcus faecium VRQR (vancomycin resistant, quinolone resistant); assay: as above; conditions: 35° C., 5 % CO2, 24 hours
Protocol: as §1
as §2, with “Streptococci” for “S. aureus”, “enterococci” for “M. catarrhalis”, “agar supplemented with 5% defibrinated horse blood,” for “agar,”, “C. in an atmosphere of 5 % CO2” for “C.”

[8] = tested on: Streptococcus pneumoniae PRQR (penicillin resistant, quinolone resistant); assay: as above; conditions: 35° C., 5 % CO2, 24 hours
Protocol: as §1
as §2, with “Streptococci” for “S. aureus”, “enterococci” for “M. catarrhalis”, “agar supplemented with 5% defibrinated horse blood,” for “agar,”, “C. in an atmosphere of 5 % CO2” for “C.”

MIC [1]	MIC [2]	MIC [3]	MIC [4]	MIC [5]	MIC [6]	MIC [7]	MIC [8]	Compound
0.125 µg/mL	1 µg/mL	0.5 µg/mL	0.125 µg/mL	0.125 µg/mL	0.06 µg/mL	0.125 µg/mL	0.06 µg/mL	CC(=O)NC[C@H]1CN(c2ccc(-c3ccc([C@@]4(C#N)[C@@H]5CNC[C@@H]54)nc3)cc2)C(=O)O1.Cl [Example 13, N-[5(S)-3-[4-[2-[(1α,5α,6β)-6-Cyano-3-azabicyclo[3.1.0]hexan-6-yl]pyridin-5-yl]phenyl]-2-oxooxazolidin-5-ylmethyl]acetamide Hydrochloride]
0.25 µg/mL	4 µg/mL	1 µg/mL	0.25 µg/mL	0.25 µg/mL	0.25 µg/mL	0.5 µg/mL	0.25 µg/mL	CC(=O)NC[C@H]1CN(c2ccc(-c3ccc([C@@]4(C#N)[C@@H]5CNC[C@@H]54)c(F)c3)c(F)c2)C(=O)O1.Cl [Example 15, N-[5(S)-3-[4-[4-[(1α,5α,6β)-6-Cyano-3-azabicyclo[3.1.0]hexan-6-yl]-3-fluorophenyl]-3-fluorophenyl]-2-oxooxazolidin-5-ylmethyl]acetamide Hydrochloride]
0.06 µg/mL (≈ 0.134 µM)	0.5 µg/mL (≈ 1.12 µM)	0.5 µg/mL (≈ 1.12 µM)	0.06 µg/mL (≈ 0.134 µM)	0.06 µg/mL (≈ 0.134 µM)	0.06 µg/mL (≈ 0.134 µM)	0.06 µg/mL (≈ 0.134 µM)	0.06 µg/mL (≈ 0.134 µM)	N#C[C@]1(c2ccc(-c3ccc(N4C[C@H](Cn5ccnn5)OC4=O)cc3F)cn2)[C@@H]2COC[C@@H]21 [Example 23, 1-[5(R)-3-[4-[2-[(1α,5α,6β)-6-Cyano-3-oxabicyclo[3.1.0]hexan-6-yl]pyridin-5-yl]-3-fluorophenyl]-2-oxooxazolidin-5-ylmethyl]-1,2,3-triazole]
–	4 µg/mL (≈ 11.9 µM)	–	–	–	–	–	–	CC(=O)NC[C@H]1CN(c2ccc(N3CCOCC3)c(F)c2)C(=O)O1 [Linezolid, reference compound]
